Results from patent publication US20140315876A1, “BETA-LACTAMASE INHIBITORS” (priority 2013, published 2014).
Where a name gives a salt, the structure may show the parent alone.

How the values were obtained:
[1] = system: bacterial strains that express the class D cephalosporinase OXA-15; assay: Synergy MIC / standard BLI potentiation MIC assay, strains expressing OXA-15; type: cell-based, E. coli; details: in the presence of a β-lactam; comparator Avibactam (comparator compound CCC)
Method in brief: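 Broth microdilution in CAMHB per CLSI, ~10^5 CFU/mL, 18-20 h at 37° C; MIC is lowest concentration with no visible turbidity. Potentiation: β-lactam 128-0.13 μg/mL with BLI fixed at 4 μg/mL. Synergy: BLI serially diluted with β-lactam fixed. Engineered E. coli kept on 25 μg/mL tetracycline.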

[2] = system: bacterial strains that express KPC β-lactamases; assay: Synergy MIC / standard BLI potentiation MIC assay, strains expressing KPC β-lactamases; type: cell-based; details: more active for at least one KPC strain and/or better spectrum of activity than Avibactam; in the presence of a β-lactam
Protocol: The experimental protocol was performed according to Clinical and Laboratory Standards Institute (CLSI) guidelines with modifications as described below (CLSI guidelines can be derived from the CLSI document M07-A9 published in January 2012: “Methods for Dilution Antimicrobial Susceptibility Tests for Bacteria That Grow Aerobically; Approved Standard-Ninth Edition”).
To prepare for MIC testing, frozen glycerol stocks of clinical isolates (Klebsiella pneumoniae, Eschericia coli, Enterobacter spp, Citrobacter spp, or Pseudomonas aeruginosa) were used to streak for isolated colonies on rich, non-selective, tryptic soy agar containing 5% sheep's blood (TSAB). Frozen glycerol stocks of laboratory engineered, isogenic E. coli strains, which contain cloned β-lactamase expressing plasmids were used to streak for isolated colonies on rich, selective LB agar supplemented with 25 μg/mL tetracycline to maintain the plasmid. All strains were incubated at 37° C. for 18-24 hrs.
On the day of testing, primary cultures were started by scraping off 5-10 colonies from the TSAB plates containing clinical strains or the tetracycline supplemented LB plates containing engineered strains. The clinical strain material was suspended in ˜5 mL of cation adjusted Mueller Hinton Broth (CAMHB) in 14 mL culture tubes. The engineered strain material was suspended in CAMHB (supplemented with 25 μg/mL tetracycline) in 14 mL culture tubes. All strains were incubated at 37° C. with aeration (200 rpm) for ˜2 hrs until the optical density at 600 nm (OD600) was ≧0.1.
The two compound components of the assay were each diluted in CAMHB and added to the 96-well broth microdilution assay plates. 50 μL of the β-lactam was added to each well of the assay plate in 2-fold dilutions with final concentrations ranging from 128 to 0.13 μg/mL. 25 μL of the BLI compound was added to all wells in the broth microdilution plates at a final concentration of 4 μg/mL. Inoculum cultures were prepared by standardizing the primary cultures to OD600=0.1 and then adding 20 μL of the adjusted primary culture per 1 mL CAMHB for clinical strains or CAMHB (supplemented with tetracycline at 100 μg/mL) for engineered strains, so that the final inoculum density was ˜10^5 colony forming units per milliliter. Diluted inoculum cultures were used to inoculate 25 μL per well in 96-well broth microdilution assay plates. The final volume of each well was 100 μL and contained a β-lactam at different concentrations, a BLI compound at 4 μg/mL concentration, the bacterial culture at an OD600 of approximately 0.001 and when necessary tetracycline at 25 μg/mL.
Plates were incubated for 18-20 hours at 37° C. with aeration (200 rpm). Following incubation, growth was confirmed visually placing plates over a viewing apparatus (stand with a mirror underneath) and then OD600 was measured using a SpectraMax 340PC384 plate reader (Molecular Devices, Sunnyvale, Calif.). Growth was defined as turbidity that could be detected with the naked eye or achieving minimum OD600 of 0.1. MIC values were defined as the lowest concentration producing no visible turbidity.
The synergy MIC (sMIC) assay determines the concentration of the BLI required to potentiate the activity of a fixed concentration of a β-lactam antibiotic against β-lactamase producing bacterial strains. The experimental protocol was performed according to Clinical and Laboratory Standards Institute (CLSI) guidelines with modifications as described below (CLSI guidelines can be derived from the CLSI document M07-A9 published in January 2012: “Methods for Dilution Antimicrobial Susceptibility Tests for Bacteria That Grow Aerobically; Approved Standard-Ninth Edition”). […]

O=C1N2C[C@@H](CC[C@H]2c2nnc(C3CCNC3)o2)N1OS(=O)(=O)O (stereo partly drawn) [Compound 710, (2S,5R)-7-oxo-2-(5-(pyrrolidin-3-yl)-1,3,4-oxadiazol-2-yl)-1,6-diazabicyclo[3.2.1]octan-6-yl hydrogen sulfate]
activity against bacterial strains that express the class D cephalosporinase OXA-15, compared with Avibactam [1]: more active than Avibactam | activity and/or spectrum of activity against bacterial strains that express KPC β-lactamases, compared with Avibactam [2]: more active than Avibactam

N[C@H]1C[C@H](Cc2nnc([C@@H]3CC[C@@H]4CN3C(=O)N4OS(=O)(=O)O)o2)C1 [Compound 751, (2S,5R)-2-(5-(((1r,3S)-3-aminocyclobutyl)methyl)-1,3,4-oxadiazol-2-yl)-7-oxo-1,6-diazabicyclo[3.2.1]octan-6-yl hydrogen sulfate]
activity against bacterial strains that express the class D cephalosporinase OXA-15, compared with Avibactam [1]: more active than Avibactam | activity and/or spectrum of activity against bacterial strains that express KPC β-lactamases, compared with Avibactam [2]: more active than Avibactam

O=C1N2C[C@@H](CC[C@H]2c2nnc(CCCNC3CCNCC3)o2)N1OS(=O)(=O)O [Compound 771, (2S,5R)-7-oxo-2-(5-(3-(piperidin-4-ylamino)propyl)-1,3,4-oxadiazol-2-yl)-1,6-diazabicyclo[3.2.1]octan-6-yl hydrogen sulfate]
activity against bacterial strains that express the class D cephalosporinase OXA-15, compared with Avibactam [1]: more active than Avibactam | activity and/or spectrum of activity against bacterial strains that express KPC β-lactamases, compared with Avibactam [2]: more active than Avibactam

N=C(N)NCC1(c2nnc([C@@H]3CC[C@@H]4CN3C(=O)N4OS(=O)(=O)O)o2)CC1 [Compound 723, (2S,5R)-2-(5-(1-(guanidinomethyl)cyclopropyl)-1,3,4-oxadiazol-2-yl)-7-oxo-1,6-diazabicyclo[3.2.1]octan-6-yl hydrogen sulfate]
activity against bacterial strains that express the class D cephalosporinase OXA-15, compared with Avibactam [1]: more active than Avibactam | activity and/or spectrum of activity against bacterial strains that express KPC β-lactamases, compared with Avibactam [2]: more active than Avibactam

N=C(N)NC[C@H](O)c1nnc([C@@H]2CC[C@@H]3CN2C(=O)N3OS(=O)(=O)O)o1 [Compound 732, (2S,5R)-2-(5-((S)-2-guanidino-1-hydroxyethyl)-1,3,4-oxadiazol-2-yl)-7-oxo-1,6-diazabicyclo[3.2.1]octan-6-yl hydrogen sulfate]
activity against bacterial strains that express the class D cephalosporinase OXA-15, compared with Avibactam [1]: more active than Avibactam | activity and/or spectrum of activity against bacterial strains that express KPC β-lactamases, compared with Avibactam [2]: more active than Avibactam

N[C@H]1CN[C@@H](c2nnc([C@@H]3CC[C@@H]4CN3C(=O)N4OS(=O)(=O)O)o2)C1 [Compound 761, (2S,5R)-2-(5-((2R,4R)-4-aminopyrrolidin-2-yl)-1,3,4-oxadiazol-2-yl)-7-oxo-1,6-diazabicyclo[3.2.1]octan-6-yl hydrogen sulfate]
activity against bacterial strains that express the class D cephalosporinase OXA-15, compared with Avibactam [1]: more active than Avibactam | activity and/or spectrum of activity against bacterial strains that express KPC β-lactamases, compared with Avibactam [2]: more active than Avibactam

N[C@H]1C[C@H](c2nnc([C@@H]3CC[C@@H]4CN3C(=O)N4OS(=O)(=O)O)s2)C1 [Compound 783, (2S,5R)-2-(5-((1r,3S)-3-aminocyclobutyl)-1,3,4-thiadiazol-2-yl)-7-oxo-1,6-diazabicyclo[3.2.1]octan-6-yl hydrogen sulfate]
activity against bacterial strains that express the class D cephalosporinase OXA-15, compared with Avibactam [1]: more active than Avibactam | activity and/or spectrum of activity against bacterial strains that express KPC β-lactamases, compared with Avibactam [2]: more active than Avibactam

N=C(N)NCCc1nnc([C@@H]2CC[C@@H]3CN2C(=O)N3OS(=O)(=O)O)o1 [Compound 705, (2S,5R)-2-(5-(2-guanidinoethyl)-1,3,4-oxadiazol-2-yl)-7-oxo-1,6-diazabicyclo[3.2.1]octan-6-yl hydrogen sulfate]
activity against bacterial strains that express the class D cephalosporinase OXA-15, compared with Avibactam [1]: more active than Avibactam | activity and/or spectrum of activity against bacterial strains that express KPC β-lactamases, compared with Avibactam [2]: more active than Avibactam

O=C1N2C[C@@H](CC[C@H]2c2nnc(CN3CCNCC3)o2)N1OS(=O)(=O)O [Compound 777, (2S,5R)-7-oxo-2-(5-(piperazin-1-ylmethyl)-1,3,4-oxadiazol-2-yl)-1,6-diazabicyclo[3.2.1]octan-6-yl hydrogen sulfate]
activity against bacterial strains that express the class D cephalosporinase OXA-15, compared with Avibactam [1]: more active than Avibactam | activity and/or spectrum of activity against bacterial strains that express KPC β-lactamases, compared with Avibactam [2]: more active than Avibactam

O=C1N2C[C@@H](CC[C@H]2c2nnc([C@@H]3CCNC3)o2)N1OS(=O)(=O)O [Compound 759, (2S,5R)-7-oxo-2-(5-((R)-pyrrolidin-3-yl)-1,3,4-oxadiazol-2-yl)-1,6-diazabicyclo[3.2.1]octan-6-yl hydrogen sulfate]
activity against bacterial strains that express the class D cephalosporinase OXA-15, compared with Avibactam [1]: more active than Avibactam | activity and/or spectrum of activity against bacterial strains that express KPC β-lactamases, compared with Avibactam [2]: more active than Avibactam

NCc1nnc([C@@H]2CC[C@@H]3CN2C(=O)N3OS(=O)(=O)O)o1 [Compound 702, (2S,5R)-2-(5-(aminomethyl)-1,3,4-oxadiazol-2-yl)-7-oxo-1,6-diazabicyclo[3.2.1]octan-6-yl hydrogen sulfate]
activity against bacterial strains that express the class D cephalosporinase OXA-15, compared with Avibactam [1]: more active than Avibactam | activity and/or spectrum of activity against bacterial strains that express KPC β-lactamases, compared with Avibactam [2]: more active than Avibactam

N=C(N)N[C@H]1C[C@@H](c2nnc([C@@H]3CC[C@@H]4CN3C(=O)N4OS(=O)(=O)O)s2)C1 [Compound 784, (2S,5R)-2-(5-((1s,3R)-3-guanidinocyclobutyl)-1,3,4-thiadiazol-2-yl)-7-oxo-1,6-diazabicyclo[3.2.1]octan-6-yl hydrogen sulfate]
activity against bacterial strains that express the class D cephalosporinase OXA-15, compared with Avibactam [1]: more active than Avibactam | activity and/or spectrum of activity against bacterial strains that express KPC β-lactamases, compared with Avibactam [2]: more active than Avibactam

NCCCc1nnc([C@@H]2CC[C@@H]3CN2C(=O)N3OS(=O)(=O)O)o1 [Compound 720, (2S,5R)-2-(5-(3-aminopropyl)-1,3,4-oxadiazol-2-yl)-7-oxo-1,6-diazabicyclo[3.2.1]octan-6-yl hydrogen sulfate]
activity against bacterial strains that express the class D cephalosporinase OXA-15, compared with Avibactam [1]: more active than Avibactam | activity and/or spectrum of activity against bacterial strains that express KPC β-lactamases, compared with Avibactam [2]: more active than Avibactam

O=C1N2C[C@@H](CC[C@H]2c2nnc(C3CCNCC3)o2)N1OS(=O)(=O)O [Compound 711, (2S,5R)-7-oxo-2-(5-(piperidin-4-yl)-1,3,4-oxadiazol-2-yl)-1,6-diazabicyclo[3.2.1]octan-6-yl hydrogen sulfate]
activity against bacterial strains that express the class D cephalosporinase OXA-15, compared with Avibactam [1]: more active than Avibactam | activity and/or spectrum of activity against bacterial strains that express KPC β-lactamases, compared with Avibactam [2]: more active than Avibactam

N[C@H]1C[C@@H](CCc2nnc([C@@H]3CC[C@@H]4CN3C(=O)N4OS(=O)(=O)O)o2)C1 [Compound 754, (2S,5R)-2-(5-(2-((1s,3S)-3-aminocyclobutyl)ethyl)-1,3,4-oxadiazol-2-yl)-7-oxo-1,6-diazabicyclo[3.2.1]octan-6-yl hydrogen sulfate]
activity against bacterial strains that express the class D cephalosporinase OXA-15, compared with Avibactam [1]: more active than Avibactam | activity and/or spectrum of activity against bacterial strains that express KPC β-lactamases, compared with Avibactam [2]: more active than Avibactam

O=C1N2C[C@@H](CC[C@H]2c2nnc(C3CC4(CNC4)C3)o2)N1OS(=O)(=O)O [Compound 750, (2S,5R)-2-(5-(2-azaspiro[3,3]heptan-6-yl)-1,3,4-oxadiazol-2-yl)-7-oxo-1,6-diazabicyclo[3.2.1]octan-6-yl hydrogen sulfate]
activity against bacterial strains that express the class D cephalosporinase OXA-15, compared with Avibactam [1]: more active than Avibactam | activity and/or spectrum of activity against bacterial strains that express KPC β-lactamases, compared with Avibactam [2]: more active than Avibactam
